The source of these data is patent publication US8148534B2, “Inhibitors of 11-beta-hydroxysteroid dehydrogenase 1” (Eli Lilly and Company, priority 2006, dated 2012).

Assay [1] concerns the target recombinant human 11β-HSD type 1 enzyme (Homo sapiens, UniProt P28845). As to the kind of experiment: 11-β-HSD Type 1 Enzyme Assay (NADPH fluorescence). The assay is classed as biochemical. The note with it: three hour incubation at room temperature, read-out: Human 11-βHSD1 IC50. The method, then:
11-β-HSD Type 1 Enzyme Assay
Human 11-β-HSD type 1 activity is measured by assaying NADPH production by fluorescence assay. Solid compounds are dissolved in DMSO to a concentration of 10 mM. Twenty microliters of each are then transferred to a column of a 96-well polypropylene Nunc plate where they are further diluted 50-fold followed by subsequent two-fold titration, ten times across the plate with additional DMSO using a Tecan Genesis 200 automated system. Plates are then transferred to a Tecan Freedom 200 system with an attached Tecan Temo 96-well head and an Ultra 384 plate reader. Reagents are supplied in 96-well polypropylene Nunc plates and are dispensed individually into black 96-well Molecular Devices High Efficiency assay plates (40 μL/well capacity) in the following fashion: 9 μL/well of substrate (2.22 mM NADP, 55.5 μM Cortisol, 10 mM Tris, 0.25% Prionex, 0.1% Triton X100), 3 μL/well of water to compound wells or 3 μL to control and standard wells, 6 μL/well recombinant human 11β-HSD type 1 enzyme, 2 μL/well of compound dilutions. […] Plates are then shaken once more for 15 seconds then placed into an Ultra 384 microplate reader (355EX/460EM) for detection of NADPH fluorescence.

Assay [2] has as its target T1, 11β-HSD1 in primary human aortic smooth muscle cells (AoSMC) (Homo sapiens, UniProt P28845).
T1 construct: containing 12 ng/mL hTNFα to induce expression of 11β-HSD1; endogenous in cells; host or cells: primary human aortic smooth muscle cells (AoSMC), induced with hTNFα
As to the kind of experiment: Human Aortic Smooth Muscle Cell Assay (cortisone to cortisol conversion). The settings on record: hTNFα induced, cortisol by time resolved immunoassay. The assay is classed as cell-based. The protocol: Human Aortic Smooth Muscle Cell Assay
Primary human aortic smooth muscle cells (AoSMC) are cultured in 5% FBS growth medium to a passage number of 6, then pelleted by centrifugation and resuspended at a density of 9×10^4 cells/mL in 0.5% FBS assay medium containing 12 ng/mL hTNFα to induce expression of 11β-HSD1. Cells are seeded into 96-well tissue culture assay plates at 100 μL/well (9×10^3 cells/well) and incubated for 48 hours at 37° C., 5% CO2. Following induction, cells are incubated for 4 hours at 37° C., 5% CO2 in assay medium containing test compounds then treated with 10 μL/well of 10 μM cortisone solubilized in assay medium, and incubated for 16 hours at 37° C., 5% CO2. Medium from each well is transferred to a plate for subsequent analysis of cortisol using a competitive fluorescence resonance time resolved immunoassay. […] Higher levels of free cortisol result in diminishing energy transfer from the Europium-IgG to the APC-cortisol complex resulting in less APC fluorescence. Fluorescent intensities for Europium and APC are measured using a LJL Analyst AD. Europium and APC […] is measured using 360 nm excitation and 615 nm and 650 nm emission filters respectively. […] Fluorescent intensities measured for APC are modified by dividing by the Eu fluorescence (APC/Eu). […]

In assay [3] the test system is cortisone to cortisol conversion in male C57BL/6 mice. The experiment in a line: Acute In Vivo Cortisone Conversion Assay. The settings on record: oral dose of 10 mg/kg, cortisone challenge 30 mg/kg s.c. after 16 hours, serum cortisol. The method, then:
Acute In Vivo Cortisone Conversion Assay
In general, compounds are dosed orally into mice, the mice are challenged with a subcutaneous injection of cortisone at a set timepoint after compound injection, and the blood of each animal is collected some time later. Separated serum is then isolated and analyzed for levels of cortisone and cortisol by LC-MS/MS, followed by calculation of mean cortisol and percent inhibition of each dosing group. Specifically, male C57BL/6 mice are obtained from Harlan Sprague Dawley at average weight of 25 grams. Exact weights are taken upon arrival and the mice randomized into groups of similar weights. Compounds are prepared in 1% w-w HEC, 0.25% w-w polysorbate 80, 0.05% w-w Dow Corning antifoam #1510-US at various doses based on assumed average weight of 25 grams. Compounds are dosed orally, 200 μl per animal, followed by a subcutaneous dose, 200 μl per animal, of 30 mg/kg cortisone at 1 to 24 hours post compound dose. At 10 minutes post cortisone challenge, each animal is euthanized for 1 minute in a CO2 chamber, followed by blood collection via cardiac puncture into serum separator tubes. Once fully clotted, tubes are spun at 2500×g, 4° C. for 15 minutes, the serum transferred to wells of 96-well plates (Corning Inc, Costar #4410, cluster tubes, 1.2 ml, polypropylene), and the plates are frozen at −20° C. until analysis by LC-MS/MS. […]

T1 sequence (P28845 whole entry): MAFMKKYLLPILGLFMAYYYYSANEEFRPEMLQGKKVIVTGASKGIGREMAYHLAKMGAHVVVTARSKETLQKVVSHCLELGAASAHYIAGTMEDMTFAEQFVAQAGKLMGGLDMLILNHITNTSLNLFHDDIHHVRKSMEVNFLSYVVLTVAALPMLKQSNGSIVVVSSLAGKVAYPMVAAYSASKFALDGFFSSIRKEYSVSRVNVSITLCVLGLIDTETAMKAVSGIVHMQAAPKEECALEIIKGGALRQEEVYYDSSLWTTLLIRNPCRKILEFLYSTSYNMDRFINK
Chain of recombinant human 11β-HSD type 1 enzyme (P28845 whole entry): as above

Usually IC50 stands for the point on the concentration scale where inhibition reaches its midpoint. Turning to `O=C(c1ccc(-c2cc(Cl)c(C[C@@H]3CCN(N4CCCCC4)C3=O)c(Cl)c2)cc1)N1CCC(O)CC1` [Example 2, (R)-3-[3,5-Dichloro-4′-(4-hydroxy-piperidine-1-carbonyl)-biphenyl-4-ylmethyl]-1-piperidin-1-yl-pyrrolidin-2-one], the IC50 was 357 nM in assay [1] and 10.4 nM in assay [2].
In assay [2], `O=C(c1ccc(-c2cc(Cl)c(C[C@@H]3CCN(N4CCCCC4)C3=O)c(Cl)c2)cc1)N1CCC(C(F)(F)F)CC1` [Example 1, (R)-3-[3,5-Dichloro-4′-(4-trifluoromethyl-piperidine-1-carbonyl)-biphenyl-4-ylmethyl]-1-piperidin-1-yl-pyrrolidin-2-one] showed a half-inhibitory concentration (IC50) of 16.8 nM. Moreover, the “% Inhibition after 16 hours (dose of 10 (mg/kg))” value in assay [3] was 78%.
